Columns and labels:
Format in all cases: physicochemical
[1] = Solubility test in organic solvent (amount of dissolution); settings: amount of dissolution in propylene glycol monomethyl ether, 23° C., ultrasonic waves 30 minutes, visual observation
Method: With respect to the solubility of each compound in an organic solvent, the solubility of the compound in propylene glycol monomethyl ether was measured. The solubility was evaluated according to the following criteria, using the amount of dissolution in propylene glycol monomethyl ether. For the measurement of the amount of dissolution, the evaluation was carried out by precisely weighing the compound in a test tube at 23° C., […], applying ultrasonic waves for 30 minutes with an ultrasonic cleaning machine, visually observing the subsequent state of the liquid, and determining the concentration of the completely dissolved amount as the basis.

[2] = Refractive index of optical component forming film (spectroscopic ellipsometer); settings: wavelength 633 nm; 1000 nm film from 5% by mass composition, baked 110° C. 60 seconds
Method: (§1) The compositions for forming optical components were each prepared so that the amount of the compound shown in the following table was 5% by mass in propylene glycol methyl ether. Next, a silicon substrate was spin coated with each of these compositions for forming an optical component, and then baked at 110° C. for 60 seconds to prepare an optical component forming film each having a film thickness of 1000 nm.
(§2) Then, tests for the refractive index and the transparency at a wavelength of 633 nm were carried out by using a vacuum ultraviolet with variable angle spectroscopic ellipsometer (model name: VUV-VASE) manufactured by J.A. Woollam Japan, and the refractive index and the transparency were evaluated.

[3] = Transparency (absorption coefficient) of optical component forming film; settings: absorption coefficient at wavelength 633 nm; 1000 nm film, baked 110° C. 60 seconds
Method: as §1, §2

[4] = Film heat resistance (visual defects after baking); parameters: key: A: No visual defects in the film; C: Visual defects in the film (including the loss of films); settings: film baked at 110° C. for 5 minutes
Method: as §1
The optical component forming film was baked at 110° C. for 5 minutes to evaluate the film heat resistance.

| SMILES | Solubility test [1] | Evaluation of refractive index [2] | Evaluation of transparency [3] | Evaluation of film heat resistance [4] |
| --- | --- | --- | --- | --- |
| C=CC(=O)Oc1ccc2ccc3c(c2c1)C(c1ccc2ccccc2c1)c1c(ccc2ccc(OC(=O)C=C)cc12)O3 [BiN-1-Ac] | A (5.0% by mass≤amount of dissolution) | B (The refractive index is 1.65 or more and less than 1.75.) | A (The absorption coefficient is less than 0.03.) | A |
| OCCOc1ccc2ccc3c(c2c1)C(c1ccc2ccccc2c1)c1c(ccc2ccc(OCCO)cc12)O3 [BiN-1-E] | A (5.0% by mass≤amount of dissolution) | B (The refractive index is 1.65 or more and less than 1.75.) | A (The absorption coefficient is less than 0.03.) | A |
| C=C(C)C(=O)OCC(O)COc1ccc2ccc3c(c2c1)C(c1ccc2ccccc2c1)c1c(ccc2ccc(OCC(O)COC(=O)C(=C)C)cc12)O3 (centres unmarked) [BiN-1-Ea] | A (5.0% by mass≤amount of dissolution) | B (The refractive index is 1.65 or more and less than 1.75.) | A (The absorption coefficient is less than 0.03.) | A |
| c1ccc2cc(C3c4c(ccc5ccc(OCCOCC6CO6)cc45)Oc4ccc5ccc(OCCOCC6CO6)cc5c43)ccc2c1 (centres unmarked) [BiN-1-GE] | A (5.0% by mass≤amount of dissolution) | A (The refractive index is 1.75 or more.) | A (The absorption coefficient is less than 0.03.) | A |
| c1ccc2cc(C3c4c(ccc5ccc(OCC6CO6)cc45)Oc4ccc5ccc(OCC6CO6)cc5c43)ccc2c1 (centres unmarked) [BiN-1-G] | A (5.0% by mass≤amount of dissolution) | A (The refractive index is 1.75 or more.) | A (The absorption coefficient is less than 0.03.) | A |
| Oc1ccc(CCOc2ccc3ccc4c(c3c2)C(c2ccc3ccccc3c2)c2c(ccc3ccc(OCCc5ccc(O)cc5)cc23)O4)cc1 [BiN-1-PE] | A (5.0% by mass≤amount of dissolution) | A (The refractive index is 1.75 or more.) | A (The absorption coefficient is less than 0.03.) | A |
| Oc1ccc(Oc2ccc3ccc4c(c3c2)C(c2ccc3ccccc3c2)c2c(ccc3ccc(Oc5ccc(O)cc5)cc23)O4)cc1 [BiN-1-PX] | A (5.0% by mass≤amount of dissolution) | A (The refractive index is 1.75 or more.) | A (The absorption coefficient is less than 0.03.) | A |
| C#CCOc1ccc2ccc3c(c2c1)C(c1ccc2ccccc2c1)c1c(ccc2ccc(OCC#C)cc12)O3 [BiN-1-Pr] | A (5.0% by mass≤amount of dissolution) | A (The refractive index is 1.75 or more.) | A (The absorption coefficient is less than 0.03.) | A |
| C=Cc1ccc(COCCOc2ccc3ccc4c(c3c2)C(c2ccc3ccccc3c2)c2c(ccc3ccc(OCCOCc5ccc(C=C)cc5)cc23)O4)cc1 [BiN-1-SE] | A (5.0% by mass≤amount of dissolution) | A (The refractive index is 1.75 or more.) | A (The absorption coefficient is less than 0.03.) | A |
| C=Cc1ccc(COc2ccc3ccc4c(c3c2)C(c2ccc3ccccc3c2)c2c(ccc3ccc(OCc5ccc(C=C)cc5)cc23)O4)cc1 [BiN-1-SX] | A (5.0% by mass≤amount of dissolution) | A (The refractive index is 1.75 or more.) | A (The absorption coefficient is less than 0.03.) | A |
| C=C(C)C(=O)OCCC(N)C(=O)Oc1ccc2ccc3c(c2c1)C(c1ccc2ccccc2c1)c1c(ccc2ccc(OC(=O)C(N)CCOC(=O)C(=C)C)cc12)O3 (centres unmarked) [BiN-1-Ua] | A (5.0% by mass≤amount of dissolution) | B (The refractive index is 1.65 or more and less than 1.75.) | A (The absorption coefficient is less than 0.03.) | A |
| Oc1ccc2ccc(O)c(C(c3ccc4ccccc4c3)c3c(O)ccc4ccc(O)cc34)c2c1 [BiN-1U] | A (5.0% by mass≤amount of dissolution) | A (The refractive index is 1.75 or more.) | A (The absorption coefficient is less than 0.03.) | A |
| Oc1ccc2ccc3c(c2c1)C(c1ccc2ccccc2c1)c1c(ccc2ccc(O)cc12)O3 [BiN-1] | A (5.0% by mass≤amount of dissolution) | A (The refractive index is 1.75 or more.) | A (The absorption coefficient is less than 0.03.) | A |
| Oc1ccc2ccc3c(c2c1)C(c1cccc2ccccc12)c1c(ccc2ccc(O)cc12)O3 [BiN-2] | A (5.0% by mass≤amount of dissolution) | A (The refractive index is 1.75 or more.) | A (The absorption coefficient is less than 0.03.) | A |
| C=CCOc1ccc2c3c(ccc2c1)Oc1ccc2cc(OCC=C)ccc2c1C3c1ccc2ccccc2c1 [BiN-3-AL] | A (5.0% by mass≤amount of dissolution) | A (The refractive index is 1.75 or more.) | A (The absorption coefficient is less than 0.03.) | A |
| CC(C)(C)OC(=O)COc1ccc2c3c(ccc2c1)Oc1ccc2cc(OCC(=O)OC(C)(C)C)ccc2c1C3c1ccc2ccccc2c1 [BiN-3-MeBOC] | A (5.0% by mass≤amount of dissolution) | B (The refractive index is 1.65 or more and less than 1.75.) | A (The absorption coefficient is less than 0.03.) | A |
| Oc1ccc2c(C(c3ccc4ccccc4c3)c3c(O)ccc4cc(O)ccc34)c(O)ccc2c1 [BiN-3U] | A (5.0% by mass≤amount of dissolution) | A (The refractive index is 1.75 or more.) | A (The absorption coefficient is less than 0.03.) | A |
| Oc1ccc2c3c(ccc2c1)Oc1ccc2cc(O)ccc2c1C3c1ccc2ccccc2c1 [BiN-3] | A (5.0% by mass≤amount of dissolution) | A (The refractive index is 1.75 or more.) | A (The absorption coefficient is less than 0.03.) | A |
| CC1(c2ccc3ccccc3c2)c2c(ccc3ccc(O)cc23)Oc2ccc3ccc(O)cc3c21 [BiN-4] | A (5.0% by mass≤amount of dissolution) | A (The refractive index is 1.75 or more.) | A (The absorption coefficient is less than 0.03.) | A |
| Oc1cc2ccccc2c(C(c2ccc3ccccc3c2)c2c(O)c(O)cc3ccccc23)c1O [BiN-5U] | A (5.0% by mass≤amount of dissolution) | A (The refractive index is 1.75 or more.) | A (The absorption coefficient is less than 0.03.) | A |
